Experimental data published in patent US5637582A, “Peripheral circulation improving agent” (priority 1992, dated 1997).

What was measured:
femoral artery = assay: Maximum increase in femoral arterial blood flow in anesthetized dogs, cumulative i.v. dosing (Experimental Example 3); assay type: in vivo, dog; settings: maximum during 60 min
Method: Adult dogs (one group consisting of 5 dogs) were intravenously given the test compound under anesthesia and artificial respiration successively at intervals of 60 minutes so that the dose can be 10, 30, 100, 300 and 1000 μg/kg body weight, and the blood flow of femoral artery was measured with a time course. […] An increase in the femoral arterial blood flow was calculated by subtracting the blood flow before the administration of the first dose of test compound as the standard value (the base line) from that of maximum during an interval of 60 minutes after each administration.

hind leg edema = assay: Hind leg frostbite model: model of Raynaud's disease (Experimental Example 7); assay type: in vivo, male SD rat
Method: (Hind leg frostbite model: Model of Raynaud's disease)
Left hind leg of male SD rat (one group: 3 to 5 rats) was dipped in dry ice-ethanol for 2 seconds, and after 30 minutes, 30 mg/kg of a test compound dissolved in pure water was administered to the rat and then orally administered twice a day for 6 days continuously. At the final day of the experiment, volumes of both hind legs (below ankle joint) of the rat were measured by a water substitution method and an edema ratio was calculated from the following equation. Also, an inhibition ratio of the test compound administered group was obtained by comparing the edema ratio of the group in which the test compound was not administered. [formula]
The present model is disclosed, for example, in Hayashi et al, "Pharmacological Studies on Niceritrol (10), The Effects on Experimental Models of Peripherally Circulatory Insufficiency", Applied Pharmacology, 24 (6): 859-864 (1982), noting particularly the section "2. Effect on an experimental frostbite model" on page 860.

vertebral artery = assay: Change of vertebral arterial blood flow in anesthetized dogs (Experimental Example 4); settings: 100 μg/kg i.v.
Method: Each test compound was intravenously administered to adult dogs (one group consisting of 2 or 4 dogs) under anesthesia and artificial respiration at a dose of 100 μg/kg body weight. Femoral arterial blood flow, vertebral arterial blood flow and arterial blood pressure were measured 1, 3, 5, 10, 20 and 30 minutes after the administration. The femoral arterial blood flow and vertebral arterial blood flow were measured with an electromagnetic blood flowmeter (manufactured by Nihon Koden, MFV-2100, trade name) through a flow probe attached to the femoral artery or vertebral artery. The arterial blood pressure was measured with a pressure transducer (manufactured by Millar, MICRO-TIP, Model SPC-350) through a catheter attached to the brachial artery.
Changes of the femoral arterial blood flow, vertebral arterial blood flow and arterial blood pressure were estimated by comparing the values measured before and after the administration of the test compound.

[1] = 30 mg/kg, orally twice a day for 6 days

CC(=O)O[C@@H]1C(=O)N(CCN(C)C)c2ccc(C)cc2S[C@@H]1c1ccc(C)cc1 [Compound A]
Increase in femoral arterial blood flow (femoral artery; 10 μg/kg i.v.): 5.6 mL/min | Increase in femoral arterial blood flow (femoral artery; 30 μg/kg i.v.): 40.4 mL/min | Increase in femoral arterial blood flow (femoral artery; 100 μg/kg i.v.): 55.2 mL/min | Increase in femoral arterial blood flow (femoral artery; 300 μg/kg i.v.): 61.4 mL/min | % Inhibition of edema (hind leg edema; [1]): 27% | Edema (hind leg edema; [1]): 32 ± 8% | edema inhibition activity (hind leg edema; rat hind leg frostbite model, in words): showed edema inhibition activity | Vertebral Arterial Blood Flow change (side effects) (vertebral artery; 1 min): 0.3 Δ ml/min | Vertebral Arterial Blood Flow change (side effects) (vertebral artery; 3 min): 0.0 Δ ml/min | Vertebral Arterial Blood Flow change (side effects) (vertebral artery; 5 min): -0.5 Δ ml/min | Vertebral Arterial Blood Flow change (side effects) (vertebral artery; 10 min): -1.5 Δ ml/min | Vertebral Arterial Blood Flow change (side effects) (vertebral artery; 20 min): -2.8 Δ ml/min | Vertebral Arterial Blood Flow change (side effects) (vertebral artery; 30 min): -2.5 Δ ml/min | effect on vertebral arterial blood flow (vertebral artery; G and H: one minute after, in words): substantially no effect
